# Assay results taken from US20110201629A1, “CYCLOHEXYL AMIDE DERIVATIVES AS CRF RECEPTOR ANTAGONISTS” (priority 2010, published 2011).
# Tests used:
# CRF-1 = target: T1, CRF-1 (UniProt P34998); assay: CRF-1 receptor antagonism, HTRF cAMP assay in CHO cells; format: cell-based, human; details: Biological data Table 2; inhibition of CRF induced cAMP response in CHO cells, EC50 concentration of CRF
# T1 sequence (P34998 1-415): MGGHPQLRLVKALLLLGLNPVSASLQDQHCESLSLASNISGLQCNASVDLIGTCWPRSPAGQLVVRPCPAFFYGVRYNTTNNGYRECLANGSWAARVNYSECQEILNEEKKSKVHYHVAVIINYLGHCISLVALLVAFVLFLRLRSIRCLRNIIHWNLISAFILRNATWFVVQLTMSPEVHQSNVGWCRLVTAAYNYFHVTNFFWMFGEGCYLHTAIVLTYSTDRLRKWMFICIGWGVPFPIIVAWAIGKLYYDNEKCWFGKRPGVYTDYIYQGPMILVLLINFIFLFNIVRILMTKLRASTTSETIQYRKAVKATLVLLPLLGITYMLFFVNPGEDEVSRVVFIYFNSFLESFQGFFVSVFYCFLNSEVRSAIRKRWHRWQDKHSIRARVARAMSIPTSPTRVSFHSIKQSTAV
# Method: (§1) The CRF-1 and CRF-2 receptor antagonistic activity of the agents of the invention has been determined in vitro in the following assay:
# (§2) Chinese hamster ovary (CHO) cells expressing either the human or rat recombinant CRF-1 or human CRF-2α (Chen et al, Proc Natl Acad Sci USA 90, 8967-8971, 1993; Liaw et al, Endocrinology 137, 72-77, 1996) are propagated in Dulbecco's modified Eagle medium supplemented with 10% foetal calf serum, non-essential amino acids, 100 U/ml penicillin, 100 mg/l streptomycin and 1 g/l geneticin. CHO cells expressing the rat CRF-2β receptor (Wu et al, Endocrinology 148, 1675-1687, 2007) are propagated in HAM's-F12 Glutamax supplemented with 10% foetal calf serum, 100 IU/ml penicillin, 100 mg/l streptomycin, 600 μg/ml hygromycin, 10 μg/ml blasticidin and induced with 1 μg/ml of tetracyclin for 24 hours prior to experimentation. For cyclic AMP determinations the Homogeneous Time-Resolved Fluoresce (HTRF) cAMP dynamic 2 kit (Cisbio International, France) was used as per manufacturers' instructions. CHO cells, previously cryopreserved at 3×10^6 viable cells per ml of cell recovery media (Cat no. 12648-010, Invitrogen), were thawed, centrifuged for 7 mins at 1200 rpm and resuspended in serum free media to give a concentration of 0.5×10^6 cells per/ml. Compounds of the invention, prepared in DMSO, and subsequently diluted 50 fold in assay buffer (1× Hanks balanced salt solution, 0.2% (w/v) bovine serum albumin, 1.7 mM isobutylmethylxanthine and 10 mM Hepes, pH7.4) were then added onto the 384 well low volume black assay plate (Corning Inc, US, Cat. 3676). 2000 cells/well were then added to the assay plate further diluting the compound 2 fold and then the plate was incubated for 15 mins at room temperature. Following incubation, buffer containing a 5 times final concentration of agonist, typically r/h CRF is added to the plate and incubated for 30 min at room temperature. Finally, d2 dye labeled cAMP and cryptate labeled anti-cAMP antibody, both made in lysis buffer, are added to the plate followed by a settling period of 1 hour at room temperature. During the settling period cAMP produced by the cells competes with the d2 labelled cAMP for the anti-cAMP cryptate. The plate is read on the Pherastar (BMG, Germany). Increasing levels of endogenous cAMP produced by cells can be followed by a decrease of FRET fluorescent signal and vice versa. Values represented by a change in arbitrary fluorescence units are converted into cAMP concentrations by use of a standard curve, the reagents for which are supplied with the kit. Antagonist dose response curves (1 nM-31.6 μM) are constructed and tested in the presence of an EC50 concentration of CRF relevant to the receptor (hCRF-1=3 nM, hCRF-2α=2 nM, rCRF-1=1 nM and rCRF-2β=0.1 nM). IC50 values of antagonists are calculated by fitting the percent inhibition of CRF induced cAMP response by increasing concentrations of the antagonists. The fit is performed using the nonlinear logistic function of the Activitybase software package v 5.4.5.27 (IDBS, UK).
# CRF-2 = target: T2, CRF-2 (UniProt Q13324); assay: CRF-2 receptor antagonism, HTRF cAMP assay in CHO cells; format: cell-based, human; details: Biological data Table 2; inhibition of CRF induced cAMP response in CHO cells, EC50 concentration of CRF
# T2 sequence (Q13324 1-411): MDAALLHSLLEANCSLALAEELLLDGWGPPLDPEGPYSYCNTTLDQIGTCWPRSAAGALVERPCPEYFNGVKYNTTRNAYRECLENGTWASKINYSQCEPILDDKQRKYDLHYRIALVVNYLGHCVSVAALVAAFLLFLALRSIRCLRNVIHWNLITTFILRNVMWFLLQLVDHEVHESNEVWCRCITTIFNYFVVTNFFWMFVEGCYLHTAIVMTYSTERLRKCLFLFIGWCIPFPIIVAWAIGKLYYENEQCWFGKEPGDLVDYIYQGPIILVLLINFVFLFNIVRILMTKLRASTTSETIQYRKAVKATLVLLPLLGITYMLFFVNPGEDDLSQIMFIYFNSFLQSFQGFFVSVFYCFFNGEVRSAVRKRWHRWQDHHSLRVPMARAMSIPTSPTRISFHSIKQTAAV
# Method: as §1, §2
SMILES,IC50 (CRF-1),IC50 (CRF-2)
"Cc1ncc(Cl)cc1C(=O)N[C@H]1CC[C@H](CN2C(=O)C(C)(F)c3ccc(Cl)cc32)CC1 (single isomer, unassigned) [Example 2.33, Trans-5-Chloro-N-[4-(-6-chloro-3-fluoro-3-methyl-2-oxo-2,3-dihydro-indol-1-ylmethyl)-cyclohexyl]-2-methyl-nicotinamide]",44 nM,876 nM
"Cc1ncc(Cl)cc1C(=O)N[C@H]1CC[C@H](Cn2c(=O)n(CC(C)C)c3ccccc32)CC1 [Example 2.47, Trans-5-Chloro-N-[4-(3-isobutyl-2-oxo-2,3-dihydro-benzoimidazol-1-ylmethyl)-cyclohexyl]-2-methyl-nicotinamide]",18 nM,296 nM
"CCn1c(=O)n(C[C@H]2CC[C@H](NC(=O)c3cc(C(F)(F)F)ccc3Cl)CC2)c2ccccc21 [Example 3.4, Trans-2-Chloro-N-[4-(3-ethyl-2-oxo-2,3-dihydro-bcnzoimidazol-1-ylmethyl)-cyclohexyl]-5-trifluoromethyl-benzamide]",18 nM,1950 nM
"CCn1c(=O)n(C[C@H]2CC[C@H](NC(=O)c3cc(Cl)cnc3C)CC2)c2ccccc21 [Example 2.46, Trans-5-Chloro-N-[4-(3-ethyl-2-oxo-2,3-dihydro-benzoimidazol-1-ylmethyl)-cyclohexyl]-2-methyl-nicotinamide]",44 nM,256 nM
"Cc1ncc(Cl)cc1C(=O)N[C@H]1CC[C@H](CN2C(=O)C(C)(C)c3ccc(Cl)cc32)CC1 [Example 2.29, Trans-5-Chloro-N-[4-(6-chloro-3,3-dimethyl-2-oxo-2,3-dihydro-indol-1-ylmethyl)-cyclohexyl]-2-methyl-nicotinamide]",14 nM,4620 nM
"Cc1cccc2c1C(C)(C)C(=O)N2C[C@H]1CC[C@H](NC(=O)c2cc(Cl)cnc2C)CC1 [Example 2.27, Trans-5-Chloro-2-methyl-N-[4-(3,3,4-trimethyl-2-oxo-2,3-dihydro-indol-1-ylmethyl)-cyclohexyl]-nicotinamide]",157 nM,4810 nM
"Cc1ncc(Cl)cc1C(=O)N[C@H]1CC[C@H](CN2C(=O)C(C)(C)c3cccc(Cl)c32)CC1 [Example 2.15, Trans-5-Chloro-N-[4-(7-chloro-3,3-dimethyl-2-oxo-2,3-dihydro-indol-1-ylmethyl)-cyclohexyl]-2-methyl-nicotinamide]",17 nM,936 nM
"Cc1ncc(Cl)cc1C(=O)N[C@H]1CC[C@H](CN2C(=O)C(F)(F)c3ccc(Cl)cc32)CC1 [Example 2.26, Trans-5-Chloro-N-[4-(6-chloro-3,3-difluoro-2-oxo-2,3-dihydro-indol-1-ylmethyl)-cyclohexyl]-2-methyl-nicotinamide]",157 nM,3120 nM

# Further compounds by falling IC50 (CRF-1), results first:
IC50 (CRF-1),IC50 (CRF-2),SMILES
86 nM,3560 nM,"Cc1ncc(Cl)cc1C(=O)N[C@H]1CC[C@H](Cn2c(=O)n(C)c3ccccc32)CC1 [Example 2.50, Trans-5-Chloro-2-methyl-N-[4-(3-methyl-2-oxo-2,3-dihydro-benzoimidazol-1-ylmethyl)-cyclohexyl]-nicotinamide]"
62 nM,4590 nM,"Cc1ncc(Cl)cc1C(=O)N[C@H]1CC[C@H](CN2C(=O)[C@@](C)(F)c3ccccc32)CC1 [Example 2.20, Trans-5-Chloro-N-[4-((S)-3-fluoro-3-methyl-2-oxo-2,3-dihydro-indol-1-ylmethyl)-cyclohexyl]-2-methyl-nicotinamide]"
60 nM,4530 nM,"Cc1cc2c(cc1C)C(C)(F)C(=O)N2C[C@H]1CC[C@H](NC(=O)c2cc(Cl)cnc2C)CC1 (single isomer, unassigned; enantiomer 2) [Example 2.55, Enantiomer 2 of Trans-5-Chloro-N-[4-(3-fluoro-3,5,6-trimethyl-2-oxo-2,3-dihydro-indol-1-ylmethyl)-cyclohexyl]-2-methyl-nicotinamide]"
59 nM,4760 nM,"Cc1cc2c(cc1C)C(C)(F)C(=O)N2C[C@H]1CC[C@H](NC(=O)c2cc(Cl)cnc2C)CC1 (single isomer, unassigned; enantiomer 1) [Example 2.54, Enantiomer 1 of Trans-5-Chloro-N-[4-(3-fluoro-3,5,6-trimethyl-2-oxo-2,3-dihydro-indol-1-ylmethyl)-cyclohexyl]-2-methyl-nicotinamide]"
57 nM,2140 nM,"Cc1cccc2c1N(C[C@H]1CC[C@H](NC(=O)c3cc(C(F)(F)F)ccc3Cl)CC1)C(=O)C2(C)C [Example 2.23, Trans-2-Chloro-5-trifluoromethyl-N-[4-(3,3,7-trimethyl-2-oxo-2,3-dihydro-indol-1-ylmethyl)-cyclohexyl]-benzamide]"
50 nM,1680 nM,"COc1cccc2c1N(C[C@H]1CC[C@H](NC(=O)c3cc(C(F)(F)F)ccc3Cl)CC1)C(=O)C2(C)C [Example 2.18, Trans-2-Chloro-N-[4-(7-methoxy-3,3-dimethyl-2-oxo-2,3-dihydro-indol-1-ylmethyl)-cyclohexyl]-5-trifluoromethyl-benzamide]"
48 nM,3800 nM,"Cc1ncc(Cl)cc1C(=O)N[C@H]1CC[C@H](CN2C(=O)C(C)(C)c3ccccc32)CC1 [Example 1.3, Trans-5-chloro-N-[4-(3,3-dimethyl-2-oxo-2,3-dihydro-indol-1-ylmethyl)-cyclohexyl]-2-methyl-icotinamide]"
38 nM,3050 nM,"COc1ccc2c(c1)N(C[C@H]1CC[C@H](NC(=O)c3cc(Cl)cnc3C)CC1)C(=O)C2(C)C [Example 2.28, Trans-5-Chloro-N-[4-(6-methoxy-3,3-dimethyl-2-oxo-2,3-dihydro-indol-1-ylmethyl)-cyclohexyl]-2-methyl-nicotinamide]"
12 nM,811 nM,"Cc1ncc(Cl)cc1C(=O)N[C@H]1CC[C@H](CN2C(=O)C3(CC3)c3cc(F)ccc32)CC1 [Example 2.6, Trans-5-chloro-N-[-4-((5′-fluoro-2′-oxospiro[cyclopropane-1,3′-indoline]-1′-yl)methyl)cyclohexyl]-2-methyl nicotinamide]"
